Measured values from patent US12502480B1, “System and method for administration of a substance” (Abusarah, Inc., priority 2025, dated 2025).
Where two headings read alike, the source gives them in different places.

How the values were obtained:
[1] = cited from earlier work
[2] = cited from earlier work; for Cmax / AUC0-24 h: Caucasians 18-60 years of age; for Cmax: in ng/mL; for AUC0-24 h: in ng·h/mL
[3] = cited from earlier work; for Cmax / Tmax: arterial
[4] = Pharmacokinetics of inhaled (nebulized) esketamine versus IV infusion, arterial concentrations; conditions: comparison across Examples 3 and 4, not within the same individuals
[5] = cited from earlier work; remark: listed apart in the source
clinical = conditions: human, in vivo
[6] = IN administration, based upon the models
[7] = inhalation of 0.35 mg/kg esketamine
[8] = inhalation of 0.5 mg/kg esketamine
[9] = inhalation of 0.7 mg/kg esketamine

In the case of `Cc1cccc([C@H](C)c2cnc[nH]2)c1C` [dexmedetomidine], the “disposition, intravenous versus intranasal administration” value ([1]; 2-compartment disposition model) is given as “similar”, the intranasal bioavailability ([1]; both atomization and drops) is given as about 40% and the “uptake kinetics of atomized and intranasal relative to IV” value ([1]; in vivo, iv) is given as “slower update kinetics”. The “absorption rate constant (kabs)” value ([1]; intranasal by atomizer) was 0.857 h⁻¹, the “mean transit time (delay in uptake)” value ([1]; intranasal by atomizer) was 0.176 h and the “absorption rate constant (kabs)” value ([1]; intranasal by drops) was 0.725 h⁻¹. For the same molecule, the “mean transit time (delay in uptake)” value ([1]; intranasal by drops) was 0.163 h.
In the case of `CN[C@]1(c2ccccc2Cl)CCCCC1=O` [esketamine, S-ketamine], the Cmax ([2]; 28 mg IN esketamine) is listed as 43.8, the AUC0-24 h ([2]; 28 mg IN esketamine) is listed as 147.3 and the Cmax ([2]; 56 mg IN esketamine) is listed as 72.5. The AUC0-24 h ([2]; 56 mg IN esketamine) was 254.7, the Cmax ([2]; 84 mg IN esketamine) was 101 and the AUC0-24 h ([2]; 84 mg IN esketamine) was 362.2. For the same molecule, the “fraction of dose absorbed through the nasal cavity” value [2, 6] was about 54%, the “fraction of dose swallowed” value [2, 6] was 46% and the “swallowed percentage reaching the systemic circulation after first-pass metabolism” value ([2]; IN administration) was 18.6%. The mean absorption time ([2]; absorption through the gut) was 2.02 h, the mean absorption time ([2]; absorption through the nasal mucosa) was 0.333 h and the absolute bioavailability ([2]; intranasal) was about 50%. For the same molecule, the “fraction of dose directly absorbed through the alveoli” value ([3]; INH administration) was 70%, the “fraction of dose travelling via a slower pathway (lung, GI or oropharyngeal absorption)” value ([3]; INH administration) was 30% and the “rate constant of the slow transit” value ([3]; INH administration) was 0.05 min⁻¹. For the same molecule, the “half-life of the slow transit” value ([3]; INH administration, from rate constant) was 13 min, the “dose-dependent reduction in bioavailability” value ([3]; INH, at the higher doses) was 20% and the “modeled F value (extent of bioavailability)” value ([3]; across INH doses, multicompartment model) was 0.70. The bioavailability ([3]; following INH administration) was 70%, the “fraction metabolized to noresketamine” value ([3]; in vivo) was 78% and the Cmax [3, 7] was 128 ng/mL. For the same molecule, the Tmax [3, 7] was 22 min, the Cmax [3, 8] was 180 ng/mL and the Tmax [3, 8] was 15 min. The Cmax [3, 9] was 227 ng/mL, the Tmax [3, 9] was 25 min and the “absorption following INH versus IN” value [4] was “more rapid”.
For `C=CCN1CC[C@]23c4c5ccc(O)c4O[C@H]2C(=O)CC[C@@]3(O)[C@H]1C5` [naloxone], the “K (elimination rate constant), best-fit value” (0.4 mg IV, single elimination model) was 12.16 h⁻¹, the “kabs (absorption rate constant)” value (IN doses of 1, 2 and 4 mg, best fit of one-phase association and dissociation model) was 4.47 h⁻¹ and the “elimination rate-constant, mean value” (IN doses of 1, 2 and 4 mg, model fit) was 0.82 h⁻¹. For the same molecule, the bioavailability ([5]; IM/SC dose) was 98.3%, the bioavailability ([5]; nasal spray) was 40-55% and the Cmax (clinical; 1 mg) was 2.1 ng/mL. For the same molecule, the Cmax (clinical; 2 mg) was 4.3 ng/mL, the Cmax (clinical; 4 mg) was 10.1 ng/mL and the half-life (clinical; iv, 0.4 mg) was 3.4 min.
In the case of `N[C@]1(c2ccccc2Cl)CCCCC1=O` [noresketamine], the Cmax ([2]; 28 mg IN esketamine) is listed as 59.1, the AUC0-24 h ([2]; 28 mg IN esketamine) is listed as 274.4 and the Cmax ([2]; 56 mg IN esketamine) is listed as 119.7. For the same molecule, the AUC0-24 h ([2]; 56 mg IN esketamine) was 516.3, the Cmax ([2]; 84 mg IN esketamine) was 180 and the AUC0-24 h ([2]; 84 mg IN esketamine) was 758. The Cmax [3, 7] was 52 ng/mL, the Tmax [3, 7] was 63 min and the Cmax [3, 8] was 97 ng/mL. The Tmax [3, 8] was 48 min, the Cmax [3, 9] was 153 ng/mL and the Tmax [3, 9] was 41 min.
